Source: the supplement of paper PMC10307832

Experiments:
Assay in all cases: relative viability (nuclei count vs DMSO), 5 days (fraction); higher = more cells survive
[1] = compound: C1=CC(=CC=C1NC(=S)NNC2=C(C=C(C=C2[N+](=O)[O-])C(F)(F)F)[N+](=O)[O-])F [Kobe2602] + COc1cc2c(Oc3ccc(NC(=O)C4(C(=O)Nc5ccc(F)cc5)CC4)cc3F)ccnc2cc1OCCCN1CCOCC1 [Foretinib] (partner 0.25 µM)
Procedure, shortened: (§1)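 For relative viability, nuclei counts in treated wells were divided by those in vehicle wells. Lung cancer cell lines had been pin-tool dosed in 1536-well plates the day after seeding and cultured for 5 days, then fixed and stained in one step (final 0.05% Triton X-100, 1% formaldehyde, 1 ug/ml Hoechst) and imaged at 4×. Doses were one drug alone or a fixed anchor-drug dose plus five library-drug doses (not always all listed) in √10 steps, and values are duplicate-plate medians.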

[2] = compound: COc1cc2nccc(Oc3ccc(NC(=O)C4(C(=O)Nc5ccc(F)cc5)CC4)cc3)c2cc1OC [Cabozantinib] + CCNC(=O)c1noc(-c2cc(C(C)C)c(O)cc2O)c1-c1ccc(CN2CCOCC2)cc1 [Luminespib] (partner 0.01 µM)
Procedure, shortened: as §1

[3] = compound: COc1cc2nccc(Oc3ccc(NC(=O)C4(C(=O)Nc5ccc(F)cc5)CC4)cc3)c2cc1OC [Cabozantinib] + COc1cc2c(Oc3ccc(NC(=O)C4(C(=O)Nc5ccc(F)cc5)CC4)cc3F)ccnc2cc1OCCCN1CCOCC1 [Foretinib] (partner 0.25 µM)
Procedure, shortened: as §1

[4] = compound: O[C@@H](COc1cccc2ncccc12)CN1CCN([C@@H]2c3ccccc3[C@@H]3[C@H](c4ccccc42)C3(F)F)CC1 [Zosuquidar] + NC(=O)Nc1cc(-c2cccc(F)c2)sc1C(=O)N[C@H]1CCCNC1 [AZD7762] (partner 0.2 µM)
Procedure, shortened: as §1

With NCI-H2342 the relative viability ([1]; first compound 0.2 µM) was 1.08, the relative viability ([1]; first compound 0.6325 µM) was 1.16 and the relative viability ([1]; first compound 2 µM) was 0.968. It also gave a relative viability ([1]; first compound 6.325 µM) of 0.991, a relative viability ([1]; first compound 20 µM) of 1.23 and a relative viability ([2]; first compound 0.02 µM) of 0.673. For the same cell line, the relative viability ([2]; first compound 0.06325 µM) was 0.837, the relative viability ([2]; first compound 0.2 µM) was 0.864 and the relative viability ([2]; first compound 0.6325 µM) was 0.604. For the same cell line, the relative viability ([2]; first compound 2 µM) was 0.591, the relative viability ([3]; first compound 0.02 µM) was 1.09 and the relative viability ([3]; first compound 0.06325 µM) was 1.16. The relative viability ([3]; first compound 0.2 µM) was 1.08, the relative viability ([3]; first compound 0.6325 µM) was 1.06 and the relative viability ([3]; first compound 2 µM) was 0.799. For the same cell line, the relative viability ([4]; first compound 0.01 µM) was 0.63, the relative viability ([4]; first compound 0.03162 µM) was 0.527 and the relative viability ([4]; first compound 0.1 µM) was 0.44. It also gave a relative viability ([4]; first compound 0.3162 µM) of 0.552 and a relative viability ([4]; first compound 1 µM) of 0.47.
LK-2 gave a relative viability ([1]; first compound 0.2 µM) of 1.48, a relative viability ([1]; first compound 0.6325 µM) of 1.74 and a relative viability ([1]; first compound 2 µM) of 1.28. The relative viability ([1]; first compound 6.325 µM) was 1.14, the relative viability ([1]; first compound 20 µM) was 1.41 and the relative viability ([2]; first compound 0.06325 µM) was 0.176. For the same cell line, the relative viability ([2]; first compound 0.6325 µM) was 0.198, the relative viability ([2]; first compound 2 µM) was 0.196 and the relative viability ([3]; first compound 0.06325 µM) was 1.27. The relative viability ([3]; first compound 0.6325 µM) was 1.52, the relative viability ([3]; first compound 2 µM) was 0.863 and the relative viability ([4]; first compound 0.01 µM) was 0.496. It also gave a relative viability ([4]; first compound 0.03162 µM) of 0.428, a relative viability ([4]; first compound 0.1 µM) of 0.328 and a relative viability ([4]; first compound 0.3162 µM) of 0.541. It also gave a relative viability ([4]; first compound 1 µM) of 0.279.
In the case of NCI-H1755, the relative viability ([1]; first compound 0.2 µM) is reported as 0.948, the relative viability ([1]; first compound 0.6325 µM) is reported as 0.914 and the relative viability ([1]; first compound 2 µM) is reported as 0.915. The relative viability ([1]; first compound 6.325 µM) was 0.879, the relative viability ([1]; first compound 20 µM) was 0.868 and the relative viability ([2]; first compound 0.02 µM) was 0.33. For the same cell line, the relative viability ([2]; first compound 0.06325 µM) was 0.419, the relative viability ([2]; first compound 0.2 µM) was 0.54 and the relative viability ([2]; first compound 0.6325 µM) was 0.344. It also gave a relative viability ([2]; first compound 2 µM) of 0.403, a relative viability ([3]; first compound 0.02 µM) of 0.911 and a relative viability ([3]; first compound 0.06325 µM) of 1.01. It also gave a relative viability ([3]; first compound 0.2 µM) of 0.92, a relative viability ([3]; first compound 0.6325 µM) of 0.917 and a relative viability ([3]; first compound 2 µM) of 0.856. The relative viability ([4]; first compound 0.01 µM) was 0.399, the relative viability ([4]; first compound 0.03162 µM) was 0.461 and the relative viability ([4]; first compound 0.1 µM) was 0.398. It also gave a relative viability ([4]; first compound 0.3162 µM) of 0.497 and a relative viability ([4]; first compound 1 µM) of 0.436.
Work on A-427 yielded a relative viability ([1]; first compound 0.2 µM) of 0.983, a relative viability ([1]; first compound 0.6325 µM) of 1.21 and a relative viability ([1]; first compound 2 µM) of 1.06. It also gave a relative viability ([1]; first compound 6.325 µM) of 1.1, a relative viability ([1]; first compound 20 µM) of 1.08 and a relative viability ([2]; first compound 0.02 µM) of 1.23. For the same cell line, the relative viability ([2]; first compound 0.06325 µM) was 1.15, the relative viability ([2]; first compound 0.2 µM) was 1.03 and the relative viability ([2]; first compound 0.6325 µM) was 0.912. For the same cell line, the relative viability ([2]; first compound 2 µM) was 0.857, the relative viability ([3]; first compound 0.02 µM) was 1.09 and the relative viability ([3]; first compound 0.06325 µM) was 1.28. For the same cell line, the relative viability ([3]; first compound 0.2 µM) was 0.89, the relative viability ([3]; first compound 0.6325 µM) was 0.967 and the relative viability ([3]; first compound 2 µM) was 0.786. The relative viability ([4]; first compound 0.01 µM) was 0.759, the relative viability ([4]; first compound 0.03162 µM) was 0.798 and the relative viability ([4]; first compound 0.1 µM) was 0.693. It also gave a relative viability ([4]; first compound 0.3162 µM) of 0.764 and a relative viability ([4]; first compound 1 µM) of 0.705.
In the case of PC-3 [JPC-3], the relative viability ([1]; first compound 0.2 µM) is reported as 1.02, the relative viability ([1]; first compound 0.6325 µM) is reported as 1.18 and the relative viability ([1]; first compound 2 µM) is reported as 0.994. It also gave a relative viability ([1]; first compound 6.325 µM) of 1.03, a relative viability ([1]; first compound 20 µM) of 1.07 and a relative viability ([2]; first compound 0.02 µM) of 0.857. For the same cell line, the relative viability ([2]; first compound 0.06325 µM) was 0.803, the relative viability ([2]; first compound 0.6325 µM) was 0.825 and the relative viability ([2]; first compound 2 µM) was 0.777. It also gave a relative viability ([3]; first compound 0.02 µM) of 1.19, a relative viability ([3]; first compound 0.06325 µM) of 1.2 and a relative viability ([3]; first compound 0.6325 µM) of 1.09. For the same cell line, the relative viability ([3]; first compound 2 µM) was 1.04, the relative viability ([4]; first compound 0.01 µM) was 0.78 and the relative viability ([4]; first compound 0.03162 µM) was 0.9. For the same cell line, the relative viability ([4]; first compound 0.1 µM) was 0.648, the relative viability ([4]; first compound 0.3162 µM) was 0.836 and the relative viability ([4]; first compound 1 µM) was 0.524.
LOU-NH91 gave a relative viability ([1]; first compound 0.2 µM) of 0.95, a relative viability ([1]; first compound 0.6325 µM) of 0.964 and a relative viability ([1]; first compound 2 µM) of 0.954. The relative viability ([1]; first compound 6.325 µM) was 0.9, the relative viability ([1]; first compound 20 µM) was 0.92 and the relative viability ([2]; first compound 0.02 µM) was 0.363. The relative viability ([2]; first compound 0.06325 µM) was 0.358, the relative viability ([2]; first compound 0.6325 µM) was 0.385 and the relative viability ([2]; first compound 2 µM) was 0.271. The relative viability ([3]; first compound 0.02 µM) was 0.89, the relative viability ([3]; first compound 0.06325 µM) was 0.997 and the relative viability ([3]; first compound 0.6325 µM) was 0.966. It also gave a relative viability ([3]; first compound 2 µM) of 0.992, a relative viability ([4]; first compound 0.01 µM) of 0.761 and a relative viability ([4]; first compound 0.03162 µM) of 0.807. The relative viability ([4]; first compound 0.1 µM) was 0.637, the relative viability ([4]; first compound 0.3162 µM) was 0.793 and the relative viability ([4]; first compound 1 µM) was 0.74.
In the case of BEN, the relative viability ([1]; first compound 0.2 µM) is reported as 0.591, the relative viability ([1]; first compound 0.6325 µM) is reported as 0.706 and the relative viability ([1]; first compound 2 µM) is reported as 0.738. The relative viability ([1]; first compound 6.325 µM) was 0.58, the relative viability ([1]; first compound 20 µM) was 0.768 and the relative viability ([2]; first compound 0.02 µM) was 0.3. It also gave a relative viability ([2]; first compound 0.06325 µM) of 0.414, a relative viability ([2]; first compound 0.2 µM) of 0.326 and a relative viability ([2]; first compound 0.6325 µM) of 0.352. For the same cell line, the relative viability ([2]; first compound 2 µM) was 0.257, the relative viability ([3]; first compound 0.02 µM) was 0.595 and the relative viability ([3]; first compound 0.06325 µM) was 0.79. For the same cell line, the relative viability ([3]; first compound 0.2 µM) was 0.708, the relative viability ([3]; first compound 0.6325 µM) was 0.787 and the relative viability ([3]; first compound 2 µM) was 0.387. It also gave a relative viability ([4]; first compound 0.01 µM) of 0.738, a relative viability ([4]; first compound 0.03162 µM) of 0.615 and a relative viability ([4]; first compound 0.1 µM) of 0.518. For the same cell line, the relative viability ([4]; first compound 0.3162 µM) was 0.724 and the relative viability ([4]; first compound 1 µM) was 0.589.
NCI-H2085 gave a relative viability ([1]; first compound 0.2 µM) of 0.909, a relative viability ([1]; first compound 0.6325 µM) of 1.01 and a relative viability ([1]; first compound 6.325 µM) of 1.12. For the same cell line, the relative viability ([1]; first compound 20 µM) was 0.879, the relative viability ([2]; first compound 0.02 µM) was 0.472 and the relative viability ([2]; first compound 0.06325 µM) was 0.498. It also gave a relative viability ([2]; first compound 0.2 µM) of 0.464, a relative viability ([2]; first compound 0.6325 µM) of 0.467 and a relative viability ([2]; first compound 2 µM) of 0.432. It also gave a relative viability ([3]; first compound 0.02 µM) of 0.765, a relative viability ([3]; first compound 0.06325 µM) of 1.05 and a relative viability ([3]; first compound 0.2 µM) of 0.982. The relative viability ([3]; first compound 0.6325 µM) was 1.05, the relative viability ([3]; first compound 2 µM) was 0.855 and the relative viability ([4]; first compound 0.01 µM) was 0.983. For the same cell line, the relative viability ([4]; first compound 0.03162 µM) was 1.04, the relative viability ([4]; first compound 0.3162 µM) was 1.03 and the relative viability ([4]; first compound 1 µM) was 0.99.
